The assay has as its system rat insulin-I gene promoter. As to the kind of experiment: On-line monitoring of insulin promoter-driven DsRed/GFP expression (prIns1.DsRed) in transfected HIT-T15 cells and islet cells. The following applies: for effect of inhibitor on insulin-stimulated insulin gene transcription / insulin promoter activity: 25 μM LY294002, 10 nM rapamycin, 400 nM AC, 100 μM HNMPA-(AM)3. It is filed as cell-based, hamster (HIT-T15), rat (islet cells). The source says: Construction of prIns1.GFP has been described earlier (Leibiger et al., 1998a). Vector prIns1.DsRed was generated by exchanging the EGFP-expression cassette versus the DsRed-expression cassette obtained from pDsRed1-1 (Clontech). Plasmid prβGK.GFP (i.e. prβGK-278.GFP) was generated by exchanging the CAT-SV40pA-expression cassette of prβGK-278.CAT (Leibiger et al., 1994a) versus the EGFP-bGHpA-expression cassette obtained from pRcCMVI.GFP (Moede et al., 1999). […] All vector constructions were verified by DNA sequence analysis. Constructs for expression of the human Insulin Receptor A and B types, pCMVHIR(A) and pCMVHIR(B) and the control plasmid pCMVstop were kindly provided by Dr. A. Ullrich (Max-Planck-Institute for Biochemistry, Martinsried, Germany). Expression constructs pCMV5.PKBα, pCMV5.PKBαΔ308/437, pCMV5.PDK1 and pCMV5.PDK1-antisense were kindly provided by Drs. P. Cohen and D. R. Alessi (MRC Phosphorylation Unit, University of Dundee, UK).
Insulin-producing HIT-T15 cells were obtained from ATCC. HIT cells were reported to show glucose responsiveness at subphysiological concentrations between 0.1 and 2 mM (Sharma et al., 1995). HIT cells were grown in RPMI 1640 medium supplemented with 100 units/ml penicillin, 100 μg/ml streptomycin, 2 mM glutamine and 10% fetal calf serum at 5% CO2 and 37° C. Pancreatic islets were isolated from normally fed male Wistar rats and from mice by collagenase digestion. Isolated islets were incubated overnight at 5% CO2 and 37° C. in RPMI 1640 medium, supplemented as described above. Transfection of HIT-T15 and islet cells was performed overnight by the lipofectamine technique in RPMI 1640 medium, without serum and antibiotics. For on-line monitoring, cells were grown and transfected on 24-mm glass coverslips. Following transfection, HIT cells were cultured for 12-18 h in RPMI 1640 medium containing 0.1 mM glucose, 10% fetal calf serum and supplemented as above. Before stimulation, islets and islet cells were incubated for 2 h in RPMI 1640 medium, supplemented as above but containing 3 mM glucose. All expression constructs were prepared using the Qiagen Plasmid Maxi Kit (Qiagen), except those used to produce the adenoviruses which where purified by ultracentrifugation via a CsCI-gradient (as described in Sambrook et al, 1989).
All experiments were performed in RPMI 1640 medium, supplemented as above. Protein kinase inhibitors, antibodies or nifedipine were added to the culture medium 30 min prior to stimulation and were kept in the medium throughout stimulation. After stimulation islets, islet cells and HIT cells were cultured further at substimulatory glucose concentrations (0.1 mM for HIT cells and 3 mM for islets and islet cells). For RNA-analysis, islets and cells were harvested 60 min after start of stimulation, if not indicated otherwise. For analysis of protein kinase activities or tyrosine phosphorylation, cells were harvested immediately following stimulation.
Detection of fluorescence by digital imaging fluorescence microscopy was performed as described previously (Leibiger et al., 1998a; Leibiger et al., 1998b). Briefly, transfected cells were grown on 24-mm glass coverslips. After stimulation the coverslips were placed into a perifusion chamber which was mounted on an inverted microscope (Zeiss Axiovert 135TV). Temperature was kept at 37° C. and the cells were perfused with RPMI 1640 medium. The objective lens used was a Zeiss-Fluar ×40/1.30 oil Imm Korr. Fluorescence imaging was performed with a cooled charged-coupled device camera (CH250 with KAF 1400, Photometrics, Tucson, Ariz.) connected to an imaging system (Inovision) with fluorescence excitation from a SPEX fluorolog-2 CM1T11I spectrofluorometer (Spex Industries). The following filter-settings were used: for GFPs65T: excitation at 485 nm, a 505 nm dicroic mirror and an emission band-pass filter of 500-530 nm; for DsRed: excitation at 558 nm, a 565 nm dicroic mirror and a 580 nm long-pass filter for emission […]

Regarding insulin, the “insulin promoter-driven DsRed fluorescence upon insulin stimulation” value (5 mU/ml insulin, co-transfected cells) was “elevation”. Moreover, the “amount of exogenous insulin necessary to trigger insulin gene promoter activity” value (transfected HIT-T15 cells, supplemented culture medium (FIG. 4B)) is recorded as 5-10 μU insulin per ml.

`CC(=O)OCOC(c1ccc2ccccc2c1)P(=O)(OCOC(C)=O)OCOC(C)=O` (stereo not shown) [HNMPA-(AM)3]: the “effect of inhibitor on insulin-stimulated insulin gene transcription / insulin promoter activity” value (5 mU/ml insulin) is “abolished”. As to “autocamtide-2 related inhibitory peptide”, under “5 mU/ml insulin”, the “effect of inhibitor on insulin-stimulated insulin gene transcription / insulin promoter activity” value was “abolished”.
